In ChEMBL document CHEMBL1201862, “PubChem BioAssay data set” (2004):
Activity calls are given as the source filed them.

Key:
Phospholipase D1 = Phospholipase D1 (Homo sapiens, UniProt Q13393); test: PLD1 inhibitor potency in cells, dose response (AID 602151); type: functional;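 note: cellular PLD1 assay in Calu-1 cells stimulated with PMA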
Phospholipase D2 = Phospholipase D2 (Homo sapiens, UniProt O14939); test: PLD2 inhibitor potency in cells, dose response (AID 602147); type: functional;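 note: cellular assay in HEK293 cells overexpressing GFP-tagged PLD2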
INS1 = test: protection from cytokine-driven beta-cell apoptosis, dose response, JC-1 fluorescence, INS-1E, dry powder, set 2 (AID 488867); type: functional, cell-based; settings: Rattus norvegicus
[1] = control 3'UTR Renilla luciferase suppression, dose response, counter-screen for Shn3 inhibitor project, cell-based, Clone20-Shn3RL, cherry-picked (AID 624133); type: functional
Vero = Vero cell cytotoxicity, cytotoxicity control for flavivirus capping enzyme inhibitors (AID 588742); type: functional; settings: Chlorocebus sabaeus
[2] = molecular target: T1, Replicative DNA helicase DnaB (Mycobacterium tuberculosis, UniProt P9WMR3); test: DnaB intein splicing inhibitors, dose response, biochemical, cell-free fluorescence (AID 449749); type: functional
T1 sequence (P9WMR3 whole entry): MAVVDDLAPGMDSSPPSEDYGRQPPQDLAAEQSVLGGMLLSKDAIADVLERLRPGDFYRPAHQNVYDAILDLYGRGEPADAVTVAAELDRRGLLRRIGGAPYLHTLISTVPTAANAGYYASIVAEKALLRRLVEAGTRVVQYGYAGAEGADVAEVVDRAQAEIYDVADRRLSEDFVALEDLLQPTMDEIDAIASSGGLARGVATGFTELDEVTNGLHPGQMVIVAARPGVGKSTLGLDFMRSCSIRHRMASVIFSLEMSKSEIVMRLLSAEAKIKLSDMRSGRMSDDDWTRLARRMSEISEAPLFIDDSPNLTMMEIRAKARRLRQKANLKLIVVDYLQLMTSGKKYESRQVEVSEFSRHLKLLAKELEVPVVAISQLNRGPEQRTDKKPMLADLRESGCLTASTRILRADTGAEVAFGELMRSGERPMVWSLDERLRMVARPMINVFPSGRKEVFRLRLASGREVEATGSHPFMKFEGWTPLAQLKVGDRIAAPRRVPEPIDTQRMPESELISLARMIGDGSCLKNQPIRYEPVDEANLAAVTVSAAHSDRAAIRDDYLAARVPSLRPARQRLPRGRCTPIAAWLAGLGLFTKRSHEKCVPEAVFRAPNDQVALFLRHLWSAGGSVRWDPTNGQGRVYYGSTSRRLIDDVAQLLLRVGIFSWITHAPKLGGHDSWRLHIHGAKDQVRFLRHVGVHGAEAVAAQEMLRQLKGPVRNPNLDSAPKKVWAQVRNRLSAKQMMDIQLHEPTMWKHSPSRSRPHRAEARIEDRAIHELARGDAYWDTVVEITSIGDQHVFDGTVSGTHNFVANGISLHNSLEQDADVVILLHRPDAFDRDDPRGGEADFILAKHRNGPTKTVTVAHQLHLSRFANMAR

[3] = molecular target: T2, Hepatocyte nuclear factor 4-alpha (Homo sapiens, UniProt P41235); type: functional, cell-based;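 note: biochemical luminescence-based dose-response counterscreen measuring inhibition of HNF4 dimerization, run alongside a screen for blockers of ABHD5–perilipin-5 interaction; split luciferase complementation of HNF4 fusion proteins in cell lysate measuring dimerization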
T2 sequence (P41235 whole entry): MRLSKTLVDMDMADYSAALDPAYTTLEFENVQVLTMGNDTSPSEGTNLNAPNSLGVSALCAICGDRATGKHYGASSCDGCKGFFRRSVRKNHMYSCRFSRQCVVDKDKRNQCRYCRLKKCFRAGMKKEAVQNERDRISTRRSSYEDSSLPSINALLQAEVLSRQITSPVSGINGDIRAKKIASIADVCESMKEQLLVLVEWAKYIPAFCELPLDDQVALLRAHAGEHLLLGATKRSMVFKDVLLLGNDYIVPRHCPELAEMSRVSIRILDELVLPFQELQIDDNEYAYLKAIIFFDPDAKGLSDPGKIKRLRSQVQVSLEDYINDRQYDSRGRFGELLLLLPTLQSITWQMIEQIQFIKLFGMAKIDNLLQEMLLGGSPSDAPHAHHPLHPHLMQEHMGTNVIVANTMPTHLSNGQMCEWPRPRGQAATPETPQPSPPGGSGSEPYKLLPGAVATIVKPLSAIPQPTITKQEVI

Protein RecA = molecular target: T3, Protein RecA (Mycobacterium tuberculosis, UniProt P9WHJ3); test: Fluorescence Cell-Free Homogeneous Dose Retest to Identify Inhibitors of RecA-Intein Splicing Activity. [Related pubchem assays (depositor defined):AID2097, AID2223, AID489010, AID492950]; type: functional
T3 sequence (P9WHJ3 whole entry): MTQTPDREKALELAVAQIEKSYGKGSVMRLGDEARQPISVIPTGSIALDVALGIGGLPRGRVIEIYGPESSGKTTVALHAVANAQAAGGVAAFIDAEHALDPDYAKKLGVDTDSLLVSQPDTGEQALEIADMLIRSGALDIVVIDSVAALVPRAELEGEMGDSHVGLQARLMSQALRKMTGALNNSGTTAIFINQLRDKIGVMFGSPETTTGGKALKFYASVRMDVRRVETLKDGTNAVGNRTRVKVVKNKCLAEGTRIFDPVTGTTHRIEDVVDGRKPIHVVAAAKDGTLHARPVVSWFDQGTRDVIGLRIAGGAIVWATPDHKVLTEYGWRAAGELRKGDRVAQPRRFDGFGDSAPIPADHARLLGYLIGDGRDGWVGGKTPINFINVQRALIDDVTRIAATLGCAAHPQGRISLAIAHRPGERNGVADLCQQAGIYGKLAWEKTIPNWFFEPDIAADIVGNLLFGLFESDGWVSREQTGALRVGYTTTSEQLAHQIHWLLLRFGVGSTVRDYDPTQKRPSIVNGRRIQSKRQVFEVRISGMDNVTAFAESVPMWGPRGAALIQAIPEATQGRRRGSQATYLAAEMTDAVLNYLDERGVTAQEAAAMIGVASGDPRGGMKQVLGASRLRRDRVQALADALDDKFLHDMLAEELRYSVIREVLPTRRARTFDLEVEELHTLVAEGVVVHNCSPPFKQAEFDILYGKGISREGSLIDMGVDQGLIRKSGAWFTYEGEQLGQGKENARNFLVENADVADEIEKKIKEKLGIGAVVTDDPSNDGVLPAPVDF

[4] = HepG2 cell cytotoxicity, dose response, cytotoxicity control for Shn3 inhibitor project, CellTiter-Glo, cherry-picked (AID 624134); type: functional, cell-based
Genome polyprotein = Genome polyprotein (dengue virus type 2, UniProt P29990); test: Dengue-2 NS5 methyltransferase inhibitors, primary screen, biochemical, confirmation dose response (AID 588689); type: functional
Sequence of Genome polyprotein (P29990 2492-3391 limits assumed): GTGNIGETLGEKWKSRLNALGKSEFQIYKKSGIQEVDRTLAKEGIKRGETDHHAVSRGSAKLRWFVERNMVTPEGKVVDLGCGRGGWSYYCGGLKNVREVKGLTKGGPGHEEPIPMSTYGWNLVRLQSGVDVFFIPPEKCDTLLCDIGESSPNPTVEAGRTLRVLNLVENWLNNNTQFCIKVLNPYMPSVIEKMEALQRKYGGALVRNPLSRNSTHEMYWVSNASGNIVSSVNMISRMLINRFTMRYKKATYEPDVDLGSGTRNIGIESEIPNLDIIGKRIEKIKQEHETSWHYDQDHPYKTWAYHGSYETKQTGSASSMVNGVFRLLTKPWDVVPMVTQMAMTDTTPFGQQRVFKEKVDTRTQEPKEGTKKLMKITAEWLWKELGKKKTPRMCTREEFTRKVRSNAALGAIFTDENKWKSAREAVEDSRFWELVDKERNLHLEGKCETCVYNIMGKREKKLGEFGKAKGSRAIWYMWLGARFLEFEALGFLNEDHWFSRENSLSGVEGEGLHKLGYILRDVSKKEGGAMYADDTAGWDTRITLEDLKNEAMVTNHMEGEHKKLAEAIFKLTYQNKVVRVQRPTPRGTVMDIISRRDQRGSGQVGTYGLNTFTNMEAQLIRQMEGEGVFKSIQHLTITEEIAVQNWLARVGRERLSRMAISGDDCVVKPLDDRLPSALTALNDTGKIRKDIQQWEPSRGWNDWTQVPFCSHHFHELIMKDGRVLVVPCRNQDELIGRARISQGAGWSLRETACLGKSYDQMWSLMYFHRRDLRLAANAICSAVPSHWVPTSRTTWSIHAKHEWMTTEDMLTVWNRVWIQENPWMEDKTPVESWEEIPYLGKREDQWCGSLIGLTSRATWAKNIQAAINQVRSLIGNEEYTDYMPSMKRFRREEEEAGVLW

[5] = Shn3 3'UTR reporter inhibitors, dose response, cell-based, Clone20 osteoblasts, firefly luciferase, cherry-picked (AID 624132); type: functional;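 note: firefly luciferase luminescence from reporter carrying the Shn3 3'UTR in osteoblasts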
[6] = molecular target: Potassium voltage-gated channel subfamily KQT member 2 (Rattus norvegicus, UniProt O88943, W236L); test: KCNQ2 channel potentiators, dose response, mechanism study for KCNQ2 potentiator project, cell-based, automated electrophysiology (AID 2603); type: functional
Sequence of Potassium voltage-gated channel subfamily KQT member 2 (O88943 whole entry W236L): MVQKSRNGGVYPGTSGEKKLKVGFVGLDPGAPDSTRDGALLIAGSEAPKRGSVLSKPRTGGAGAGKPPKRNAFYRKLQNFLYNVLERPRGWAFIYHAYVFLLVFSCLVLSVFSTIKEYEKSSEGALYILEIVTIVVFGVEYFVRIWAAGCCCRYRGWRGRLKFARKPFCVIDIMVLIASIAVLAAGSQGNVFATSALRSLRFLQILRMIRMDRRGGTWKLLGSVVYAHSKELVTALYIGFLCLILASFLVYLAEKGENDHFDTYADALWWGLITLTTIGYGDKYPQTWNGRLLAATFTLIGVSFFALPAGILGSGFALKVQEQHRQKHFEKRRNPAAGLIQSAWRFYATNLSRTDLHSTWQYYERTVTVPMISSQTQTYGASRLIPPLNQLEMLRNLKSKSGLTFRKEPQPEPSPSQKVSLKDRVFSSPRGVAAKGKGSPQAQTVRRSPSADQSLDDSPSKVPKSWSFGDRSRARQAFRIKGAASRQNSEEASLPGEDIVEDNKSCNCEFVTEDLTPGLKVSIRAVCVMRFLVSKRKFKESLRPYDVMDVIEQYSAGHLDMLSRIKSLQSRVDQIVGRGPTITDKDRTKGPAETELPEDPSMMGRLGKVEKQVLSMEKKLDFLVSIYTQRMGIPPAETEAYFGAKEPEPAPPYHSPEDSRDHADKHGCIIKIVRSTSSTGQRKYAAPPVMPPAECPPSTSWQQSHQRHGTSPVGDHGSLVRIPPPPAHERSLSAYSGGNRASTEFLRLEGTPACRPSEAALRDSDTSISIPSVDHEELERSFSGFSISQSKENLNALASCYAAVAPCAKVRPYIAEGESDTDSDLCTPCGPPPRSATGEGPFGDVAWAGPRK

Procathepsin L = Procathepsin L (Homo sapiens, UniProt P07711); test: cathepsin L inhibitors, dose response, counter-screen for M1/M17 aminopeptidase inhibitor project, biochemical, QFRET, 1536-well (AID 2214)
Sequence of Procathepsin L (P07711 whole entry): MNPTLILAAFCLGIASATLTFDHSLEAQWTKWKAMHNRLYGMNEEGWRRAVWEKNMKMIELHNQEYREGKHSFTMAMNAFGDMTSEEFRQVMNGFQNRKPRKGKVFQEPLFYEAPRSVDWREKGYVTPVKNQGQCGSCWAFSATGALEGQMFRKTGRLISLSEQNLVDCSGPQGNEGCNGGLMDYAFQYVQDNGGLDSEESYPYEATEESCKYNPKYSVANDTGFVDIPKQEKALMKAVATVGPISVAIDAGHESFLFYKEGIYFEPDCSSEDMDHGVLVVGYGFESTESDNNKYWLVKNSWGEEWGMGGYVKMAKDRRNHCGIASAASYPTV

HEK293 = test: inhibitors of LMP1-driven NF-kB reporter, dose response, cell-based, HEK293, luciferase, cherry-pick (AID 588343); type: functional; settings: Homo sapiens
Aspartyl aminopeptidase = Aspartyl aminopeptidase (Plasmodium falciparum 3D7, UniProt Q8I2J3); test: Counterscreen for inhibitors of M1 and M17 aminopeptidases: QFRET-based biochemical high throughput dose response assay for inhibitors of the Plasmodium falciparum M18 Aspartyl Aminopeptidase (PFM18AAP). [Related PubChem assays: 1619 (Screening assay (M17LAP inhibitors).), 1445 (Screening assay (M1AAP inhibitors).)]
Sequence of Aspartyl aminopeptidase (Q8I2J3 whole entry): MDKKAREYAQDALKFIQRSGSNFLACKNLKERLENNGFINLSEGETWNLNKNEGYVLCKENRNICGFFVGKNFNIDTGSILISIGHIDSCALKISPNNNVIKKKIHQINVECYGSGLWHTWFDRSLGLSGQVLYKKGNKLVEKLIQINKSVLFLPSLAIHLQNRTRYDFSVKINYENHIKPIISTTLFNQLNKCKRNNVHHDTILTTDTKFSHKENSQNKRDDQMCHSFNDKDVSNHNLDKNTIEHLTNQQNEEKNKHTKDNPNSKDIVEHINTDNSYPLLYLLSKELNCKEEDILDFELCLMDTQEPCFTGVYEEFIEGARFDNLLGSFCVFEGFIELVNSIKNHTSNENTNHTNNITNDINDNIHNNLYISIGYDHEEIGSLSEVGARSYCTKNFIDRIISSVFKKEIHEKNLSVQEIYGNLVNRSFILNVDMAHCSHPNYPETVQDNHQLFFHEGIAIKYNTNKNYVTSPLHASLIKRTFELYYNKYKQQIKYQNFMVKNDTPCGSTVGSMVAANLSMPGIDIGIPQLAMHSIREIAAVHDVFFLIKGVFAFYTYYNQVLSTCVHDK

Leucine aminopeptidase = molecular target: T4, Leucine aminopeptidase (Plasmodium falciparum 3D7, UniProt Q8IL11); test: P. falciparum M17LAP inhibitors, primary screen, biochemical, fluorogenic H-Leu-NHMec substrate, 1536-well (AID 1619); type: functional
T4 sequence (Q8IL11 whole entry): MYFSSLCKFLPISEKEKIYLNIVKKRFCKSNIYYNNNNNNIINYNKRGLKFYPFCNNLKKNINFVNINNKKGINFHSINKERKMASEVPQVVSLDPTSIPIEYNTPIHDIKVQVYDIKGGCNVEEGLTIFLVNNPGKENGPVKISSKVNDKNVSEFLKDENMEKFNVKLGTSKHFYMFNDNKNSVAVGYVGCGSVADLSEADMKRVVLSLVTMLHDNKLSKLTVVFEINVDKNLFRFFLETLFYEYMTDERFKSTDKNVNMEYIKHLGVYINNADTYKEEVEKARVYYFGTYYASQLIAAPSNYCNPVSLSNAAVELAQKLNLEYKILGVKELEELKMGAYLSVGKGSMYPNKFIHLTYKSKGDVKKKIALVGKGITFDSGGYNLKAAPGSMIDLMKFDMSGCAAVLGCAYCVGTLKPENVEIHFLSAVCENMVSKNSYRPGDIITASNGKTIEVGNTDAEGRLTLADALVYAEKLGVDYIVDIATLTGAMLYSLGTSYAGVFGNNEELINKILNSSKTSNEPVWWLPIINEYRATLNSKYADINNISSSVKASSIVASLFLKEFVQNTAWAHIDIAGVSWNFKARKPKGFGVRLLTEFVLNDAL

[7] = molecular target: Beta-adrenergic receptor kinase 1 (Homo sapiens, UniProt P25098); test: aptamer displacement from bead-bound GRK2 – biochemical, cherry pick 1, bead flow cytometry, dose response (AID 504500)
Sequence of Beta-adrenergic receptor kinase 1 (P25098 whole entry): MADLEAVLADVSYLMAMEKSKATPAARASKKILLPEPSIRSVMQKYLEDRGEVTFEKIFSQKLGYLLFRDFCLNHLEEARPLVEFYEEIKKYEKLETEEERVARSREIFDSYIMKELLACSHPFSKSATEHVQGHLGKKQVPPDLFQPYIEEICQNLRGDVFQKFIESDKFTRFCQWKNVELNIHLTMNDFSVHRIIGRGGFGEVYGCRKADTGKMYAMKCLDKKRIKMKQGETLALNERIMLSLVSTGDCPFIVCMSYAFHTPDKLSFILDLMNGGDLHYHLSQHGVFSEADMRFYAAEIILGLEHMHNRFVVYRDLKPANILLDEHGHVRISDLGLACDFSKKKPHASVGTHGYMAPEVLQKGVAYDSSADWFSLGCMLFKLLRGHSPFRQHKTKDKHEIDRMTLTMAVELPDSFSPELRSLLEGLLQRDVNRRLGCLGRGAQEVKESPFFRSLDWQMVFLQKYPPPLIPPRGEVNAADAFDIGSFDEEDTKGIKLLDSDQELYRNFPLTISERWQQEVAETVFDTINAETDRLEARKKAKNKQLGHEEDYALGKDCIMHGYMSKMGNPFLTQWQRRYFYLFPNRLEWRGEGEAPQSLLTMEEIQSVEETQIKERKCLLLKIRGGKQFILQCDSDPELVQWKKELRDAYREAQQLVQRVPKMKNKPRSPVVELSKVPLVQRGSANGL

Caspase-6 = molecular target: T5, Caspase-6 (Homo sapiens, UniProt P55212); test: human caspase-6 inhibitors, dose response, biochemical, VEID-R110 fluorescence, cherry-pick (AID 720632)
T5 sequence (P55212 whole entry): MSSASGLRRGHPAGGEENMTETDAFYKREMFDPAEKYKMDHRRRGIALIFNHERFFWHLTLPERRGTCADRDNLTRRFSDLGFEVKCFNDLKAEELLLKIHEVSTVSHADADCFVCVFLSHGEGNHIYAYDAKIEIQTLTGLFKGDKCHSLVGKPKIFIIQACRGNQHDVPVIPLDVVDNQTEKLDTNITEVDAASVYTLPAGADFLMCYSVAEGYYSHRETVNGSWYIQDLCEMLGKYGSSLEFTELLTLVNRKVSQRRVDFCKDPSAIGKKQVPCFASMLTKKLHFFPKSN

Caspase-8 = Caspase-8 (Homo sapiens, UniProt Q14790); test: caspase-8 inhibition counter-screen, dose response, selectivity assay for caspase-6 inhibitor project, biochemical, Z-IETD-R110 fluorescence, cherry-picked samples (AID 743294)
Sequence of Caspase-8 (Q14790 217-374 limits assumed): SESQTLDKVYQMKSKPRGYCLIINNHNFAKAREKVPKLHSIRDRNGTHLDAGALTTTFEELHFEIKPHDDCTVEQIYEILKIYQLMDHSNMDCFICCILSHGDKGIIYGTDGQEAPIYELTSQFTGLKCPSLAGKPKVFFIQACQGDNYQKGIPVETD
Sequence of Caspase-8 (Q14790 385-479 limits assumed): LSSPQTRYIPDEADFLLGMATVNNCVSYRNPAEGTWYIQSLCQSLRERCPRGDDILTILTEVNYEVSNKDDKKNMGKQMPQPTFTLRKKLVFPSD

Caspase-7 = molecular target: T6, Caspase-7 (Homo sapiens, UniProt P55210); test: human caspase-7 inhibitors, dose response, selectivity assay for caspase-6 inhibitor project, biochemical, DEVD-R110 fluorescence, cherry-pick (AID 743295)
T6 sequence (P55210 whole entry): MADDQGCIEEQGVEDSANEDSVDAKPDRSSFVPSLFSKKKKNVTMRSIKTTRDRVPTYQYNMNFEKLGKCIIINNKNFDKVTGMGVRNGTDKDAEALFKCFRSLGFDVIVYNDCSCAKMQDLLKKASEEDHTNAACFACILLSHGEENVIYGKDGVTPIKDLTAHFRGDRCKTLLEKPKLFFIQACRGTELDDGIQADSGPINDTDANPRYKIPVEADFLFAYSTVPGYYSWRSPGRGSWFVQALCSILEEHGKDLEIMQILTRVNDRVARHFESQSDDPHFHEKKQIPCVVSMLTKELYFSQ

[8] = molecular target: T7, Carboxy-terminal domain RNA polymerase II polypeptide A small phosphatase 1 (Homo sapiens, UniProt Q9GZU7); test: inhibitors of CTDSP1, concentration-response testing, biochemical assay, absorbance-based, actives from ultra-high-throughput screening (AID 540297); type: functional
T7 sequence (Q9GZU7 whole entry): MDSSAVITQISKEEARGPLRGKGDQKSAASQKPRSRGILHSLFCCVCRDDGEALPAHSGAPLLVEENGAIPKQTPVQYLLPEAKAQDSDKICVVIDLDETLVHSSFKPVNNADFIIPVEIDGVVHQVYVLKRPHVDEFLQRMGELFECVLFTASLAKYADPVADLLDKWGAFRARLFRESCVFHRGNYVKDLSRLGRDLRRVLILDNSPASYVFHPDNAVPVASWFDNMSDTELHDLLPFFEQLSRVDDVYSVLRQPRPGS

Sequence of Phospholipase D1 (Q13393 whole entry): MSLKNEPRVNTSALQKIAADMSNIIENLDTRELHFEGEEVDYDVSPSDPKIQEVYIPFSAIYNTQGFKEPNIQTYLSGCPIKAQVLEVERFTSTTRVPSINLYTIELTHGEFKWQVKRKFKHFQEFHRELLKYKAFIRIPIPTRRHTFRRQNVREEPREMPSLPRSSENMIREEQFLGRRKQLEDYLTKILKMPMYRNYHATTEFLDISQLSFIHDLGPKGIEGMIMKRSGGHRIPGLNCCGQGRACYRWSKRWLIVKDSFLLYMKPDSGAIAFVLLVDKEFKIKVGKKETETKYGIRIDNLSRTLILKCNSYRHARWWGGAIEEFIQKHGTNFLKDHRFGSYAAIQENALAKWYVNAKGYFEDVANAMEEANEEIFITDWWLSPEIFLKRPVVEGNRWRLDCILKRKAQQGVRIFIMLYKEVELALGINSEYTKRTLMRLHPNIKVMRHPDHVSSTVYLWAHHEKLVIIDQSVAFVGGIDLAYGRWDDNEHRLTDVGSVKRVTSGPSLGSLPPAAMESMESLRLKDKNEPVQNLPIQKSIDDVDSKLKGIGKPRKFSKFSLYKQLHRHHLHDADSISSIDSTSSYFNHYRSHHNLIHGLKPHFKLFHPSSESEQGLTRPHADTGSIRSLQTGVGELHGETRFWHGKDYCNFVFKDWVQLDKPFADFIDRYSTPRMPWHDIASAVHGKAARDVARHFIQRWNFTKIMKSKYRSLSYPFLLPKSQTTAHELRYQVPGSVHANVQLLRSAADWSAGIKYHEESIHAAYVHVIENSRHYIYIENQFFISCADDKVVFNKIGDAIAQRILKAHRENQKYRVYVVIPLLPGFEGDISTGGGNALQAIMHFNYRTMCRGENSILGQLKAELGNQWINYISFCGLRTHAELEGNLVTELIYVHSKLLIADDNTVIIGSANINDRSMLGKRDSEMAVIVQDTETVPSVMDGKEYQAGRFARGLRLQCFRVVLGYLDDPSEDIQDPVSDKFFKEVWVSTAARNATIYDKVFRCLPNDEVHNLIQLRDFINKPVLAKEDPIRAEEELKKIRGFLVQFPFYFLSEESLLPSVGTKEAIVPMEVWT

SMILES: C[C@H](CN1CCC(n2nnc3ccccc32)CC1)NC(=O)c1ccc2ccccc2c1
- IC50 (Phospholipase D1): 3.8 µM (active)
- IC50 (Phospholipase D2): 12 µM (active)

SMILES: COc1ccc(S(=O)(=O)N(C)C[C@@H]2Oc3c(NC(=O)NC(C)C)cccc3C(=O)N([C@@H](C)CO)C[C@H]2C)cc1
- AC50 (INS1): 46.4 µM (active)

SMILES: CCc1nnc(NC(=O)c2nc(S(=O)(=O)Cc3ccccc3)ncc2Cl)s1
- AC50 [1]: 11.1 µM (active)
- CC50 (Vero): 27.6 µM (active)
- AC50 [2]: 18.5 µM (active)
- IC50 [3]: 5.95 µM (active)
- EC50 (Protein RecA): 5.09 µM (active)
- AC50 [4]: > 70 µM (inactive)
- IC50 (Genome polyprotein): > 100 µM (active)
- AC50 [5]: 2.72 µM (active)
- EC50 [6]: 17.3 µM (active)

SMILES: Cc1cc(C(=O)COC(=O)c2cccnc2O)c(C)n1-c1ccccc1
- IC50 (Procathepsin L): > 59.6 µM (not active)
- AC50 (HEK293): 9.69 µM (active)
- IC50 (Aspartyl aminopeptidase): > 73.5 µM (not active)
- IC50 (Leucine aminopeptidase): 2.67 µM (active)

SMILES: O=C(O)C1CCCCC1C(=O)Nc1cccc(Br)c1 (stereo unspecified)
- EC50 [7]: 3.85 µM (active)
- AC50 (Caspase-6): 0.669 µM (active)
- AC50 (Caspase-8): 25.8 µM (active)
- AC50 (Caspase-7): > 70 µM (inactive)
- IC50 [8]: 3.06 µM (active)
